Measurements: patent publication US6444420B2, “Use of GPR30 receptor ligands to mediate neurotrophic action” (The Board of Trustees of the Leland Stanford Junior …, priority 1999, dated 2002)
Entries after “also recorded” stand apart in the source; their conditions may differ.

How the values were obtained:
[1] = system: mitogen-activated protein (MAP) kinases; conditions: literature, Singh et al. (1999); cited from earlier work
[2] = system: 145 kDa intermediate neurofilament; assay: 145 kDa intermediate neurofilament expression in PC12 cells (immunoblot); type: cell-based; conditions: serum-free media, 3 days
Excerpt: FIG. 5: Induction of the 145 kDa intermediate neurofilament expression by 17β-estradioi in PC12 cells. PC12 cells were maintained in either serum-free media supplemented with either NGF or 17β-estradiol at the indicated concentrations for 3 days. Treated as well as control cells were lysed in RIPA buffer and the lysates were separated on SDS-PAGE, transferred onto PVDF membrane. The blot was probed with specific antibodies against the 145 kDa intermediate neurofilament.

[3] = system: PC12 cells; assay: PC12 cell differentiation and survival in serum-free media; type: cell-based; conditions: serum-free media with 100 nM 17β-estradiol, 6 days
Description: PC12 cells were maintained in either serum-free media (A) or serum-free media supplemented with 100 nM 17β-estradiol (B) for 6 days. Cells were monitored with phase-contrast microscope and typical images were captured using a CCD camera. Differentiated PC12 cells (arrows) can be observed with 17β-estradiol treatment (B), whereas massive cell death occurred in the control (A). The reagents used in these studies were those specified in the original references to methods employed, unless otherwise specified. We used established cell culture methods for growing cells and for examining their morphological responses (Zhou et al. (1994) Proc. Natl. Acad. Sci USA 91(9):3824-3828). To examine gene expression for GPR30 and the classical ERs, standard methods were used to isolate mRNA and to analyze it by Northern blot and by RT-PCR (GIBCO-BRL, Bethesda, Md.). The activity of Rap1 and of Ras were assayed using pull-down assays with fusion proteins that bind specifically to the GTP-bound forms of these proteins, as described (Herrmann et al. (1995) J. Biol. Chem. 270:2901-2905). These fusion proteins were produced essentially as described by these authors. The activity of MAP kinase was determined by immunoblotting cell lysates with antibodies to phosphorylated MAP kinase (Payne et al. (1991) EMBO J. 10(4):885-892). […]

[4] = system: Erk kinases (MAP kinase); assay: Erk (MAP kinase) activation by immunoblot of PC12 cell lysates; type: cell-based; conditions: serum-starved PC12 cells, 100 nM 17β-estradiol, indicated time intervals
Description: (§1) As in FIG. 2, serum-starved PC12 cells were treated with 100 nM 17β-estraldiol for the indicated time intervals. Cells were-rinsed and lysed in RIPA buffer. Proteins were separated on SDS-PAGE, blotted onto PVDF membrane. The blot was probed for activated Erks (i.e activated MAP kinase) using rabbit IgGs against activated Erk kinases (UBI). The reagents used in these studies were those specified in the original references to methods employed, unless otherwise specified. We used established cell culture methods for growing cells and for examining their morphological responses (Zhou et al. (1994) Proc. Natl. Acad. Sci USA 91(9):3824-3828). To examine gene expression for GPR30 and the classical ERs, standard methods were used to isolate mRNA and to analyze it by Northern blot and by RT-PCR (GIBCO-BRL, Bethesda, Md.). The activity of Rap1 and of Ras were assayed using pull-down assays with fusion proteins that bind specifically to the GTP-bound forms of these proteins, as described (Herrmann et al. (1995) J. Biol. Chem. 270:2901-2905). These fusion proteins were produced essentially as described by these authors. The activity of MAP kinase was determined by immunoblotting cell lysates with antibodies to phosphorylated MAP kinase (Payne et al. (1991) EMBO J. 10(4):885-892). The source of these antibodies was from New England Biolabs, Inc. (Beverley, Mass.).

[5] = system: Ras; assay: Ras activation pull-down assay in PC12 cells; type: cell-based; conditions: serum-starved PC12 cells, 100 nM 17β-estradiol, indicated time intervals
Description: Serum-starved PC12 cells were treated with 100 nM 17β-estradiol for the indicated time intervals. Activated Ras (A) and Rap1 (B) were precipitated from cell lysates and analyzed as described in the Materials and Methods. […] The activity of Rap1 and of Ras were assayed using pull-down assays with fusion proteins that bind specifically to the GTP-bound forms of these proteins, as described (Herrmann et al. (1995) J. Biol. Chem. 270:2901-2905). These fusion proteins were produced essentially as described by these authors.

[6] = system: Rap1; assay: Rap1 activation pull-down assay in PC12 cells; type: cell-based; conditions: for Effect on Rap1 activation induced by 17β-estradiol: 100 nM 17β-estradiol plus 1 μM tamoxifen
Description: FIGS. 2A, 2B, 2C, 2D: 17β-estradiol elicits Rap1, but not Ras, activation in PC12 cells. Serum-starved PC12 cells were treated with 100 nM 17β-estradiol for the indicated time intervals. Activated Ras (A) and Rap1 (B) were precipitated from cell lysates and analyzed as described in the Materials and Methods. […] Tomaxifen itself has no effect on Rap1 activation in PC12 cells D.
Drug Screening Assays: These are used to identify GPR30 ligands that bind to and activate the GPR30 receptor. Drug screening identifies agents that enhance GPR30 activity. Of particular interest are screening assays for agents that have a low toxicity for human cells. In vitro or in vivo binding assays can be used to assess the extent to which a compound behaves as a specific ligand. Other assays are available to test for the activation of signaling pathways by ligand binding. One assay based on the finding that GPR30 activation results in the activation of the small GTPase Rap1, and of the other enzymes in the MAP kinase signaling pathway that is activated by Rap1. The assay for evaluating the activation of Rap1 examines the extent to which Rap1 is bound to GTP and employs a method as described by Herrmann et al. (1995) J. Biol. Chem 270:2901-2905. A wide variety of assays are available to assess the activation status of the enzymes downstream from Rap1. These include in vitro kinase assays for B-Raf, MEK, MAP kinase and Rsk (Cowley et al. (1994) Cell 77:841-852; Vossler et al. (1997) Cell 89:73-82). The activation of these proteins and some of their downstream targets (e.g. Elk-1 and CREB) may also be assessed through the use of antibodies to phosphorylated tyrosine or serine or threonine residues, which marks their active state (Payne et al. (1991) EMBO J. 10(4):885-892).
as §1, with “The” for “As in FIG. 2, serum-starved PC12 cells were treated with 100 nM 17β-estraldiol for the indicated time intervals. Cells were-rinsed and lysed in RIPA buffer. Proteins were separated on SDS-PAGE, blotted onto PVDF membrane. The blot was probed for activated Erks (i.e activated MAP kinase) using rabbit IgGs against activated Erk kinases (UBI). The”

17β-estradiol
Tyrosine phosphorylation/activation of MAP kinases [1]: elicited rapid tyrosine phosphorylation/activation

C[C@]12CC[C@@H]3c4ccc(O)cc4CC[C@H]3[C@@H]1CC[C@@H]2O [17β-estradiol]
Expression of the 145 kDa intermediate neurofilament protein [2]: Induction; also recorded: increasing the level of expression | PC12 cell differentiation (neurite outgrowth) [3]: induces PC12 cell differentiation; also recorded: induced the outgrowth of long neurites | PC12 cell survival under serum free culture [3]: prevented these cells from dying | Erk / MAP kinase activation (pERK) [4]: induces prolonged Erk activation; also recorded: induced sustained activation | Ras activation [5]: no detectable Ras activation and not | Activation of Rap1 during the first 10 minutes of treatment ([6]; PC12 cells, first 10 minutes): little effect | Activation of Rap1 at later times ([6]; PC12 cells, later than 10 minutes): marked effect | Rap1 activation ([6]; serum-starved PC12 cells, 100 nM 17β-estradiol, indicated time intervals): induces Rap1 activation; also recorded: activated Rap1

C[C@]12CC[C@@H]3c4ccc(O)cc4C[C@@H](CCCCCCCCC[S+]([O-])CCCC(F)(F)C(F)(F)F)[C@H]3[C@@H]1CC[C@@H]2O (some centres unmarked) [ICI 182,780]
Inhibition of estradiol-elicited extracellular signal-regulated protein kinase activation [1]: not

COc1cccc(-c2cc(=O)c3ccccc3o2)c1N [PD98059]
Inhibition of estradiol-elicited extracellular signal-regulated protein kinase activation [1]: inhibited successfully

CC/C(=C(\c1ccccc1)c1ccc(OCCN(C)C)cc1)c1ccccc1 [tamoxifen]
Effect on Rap1 activation induced by 17β-estradiol ([6]; PC12 cells): blocked the response | Effect on Rap1 activation induced by 17β-estradiol ([6]; PC12 cells, listed as tomaxifen): can be blocked | Rap1 activation by the substance alone ([6]; PC12 cells, tamoxifen alone): no effect
